Numbers after ± are expanded uncertainties.
Conditions: Crystal; DTA

Normal melting temperature: 103.20 ± 0.41 °C
SMILES: CC[n+]1ccccc1.F[P-](F)(F)(F)(F)F [1-ethylpyridinium hexafluorophosphate]

From the NIST ThermoML archive (doi:10.1021/je800618x)
